The text below walks through data of US4734399A, “Growth hormone releasing factor analogs” (Hoffmann-La Roche Inc., priority 1986, dated 1988).

Test [1] has as its system release of growth hormone. The settings on record: in vitro; Rivier et al., Nature 300: 276 (1982); cited from earlier work.
In another test the test system is rat pituitary cells. In words: Stimulation of growth hormone production in rat pituitary cells in tissue culture (RIA for rat growth hormone). Type of test: cell-based. The conditions noted are these: for Potency Relative to GRF(1-44)-NH2: Exp. #GB 83, rat anterior pituitary cells, 4 hours of incubation, 0.8 to 200 fmol per ml, GH by RIA. How it is done: The assay for biological activity, which is based on the ability to stimulate production of growth hormone in rat pituitary cells in tissue culture, was performed as discribed in Example 2.
Pituitaries from 30-40 male Sprague-Dawley rats (175 g) were removed aseptically after decapitation. The anterior lobes were collected, washed 3 times in sterile Hepes buffer (0.025M) (pH 7.35) and dispersed at 37° C. in 20-30 ml Hepes buffer (pH 7.35) containing collagenase (4 mg per ml) and Dispase (Protease grade II, 2 mg per ml). After gentle 100-110 min vortexing and trituration by Pasteur pipette, the dispersed cells were separated by centrifugation (150×g, 4 min) and re-suspended in Hepes buffer containing neuraminidase ([…]), and 200 µg/ml ethylenediaminetetraacetic acid (EDTA) disodium salt, pH 7.35, for 10 min.
The cells were washed twice with plating medium and plated on multiwell-plates (1.5×10^5 cells per ml) using the following defined medium: F-12/DMEM/BGJ (6:3:1) (Gibco: 430-1700/430-1600/320-2591) with 2 g BSA/l., 2.38 g Hepes/1.50 mg PSN antibiotic mixture (Gibco Laboratories), 10 mg/l transferrin (Sigma T2252) with 1.83 g NaHCO3 /l (Baker 3506). The medium in each well was supplemented either with a sample of the novel GRF peptide or natural GRF(1-44)-NH2 at concentrations ranging from 0.8 to 200 fmol per ml of medium. Control wells contained no supplement. Plating was done with this medium added with 2% fetal calf serum to ensure rapid fixation of the cells.
On the fourth day, the cells were washed twice with the defined medium without fetal calf serum. Finally 900 μl of defined medium was added to each well plus 100 μl of the same medium containing each individual treatment, in triplicate. After 4 hours of incubation the medium was collected and diluted as required to conduct radioimmunoassay (RIAs) for rat growth hormone.
RIAs for rat growth hormone were conducted using Sinha's anti-murine GH immune serum and procedures according to the National Pituitary Agency using protein A to precipitate antibody antigen complex.

Take GRF(1-29)-NH2 [GRF(1-29)NH2]: the “Intrinsic activity and potency on a weight for weight basis” value in test [1] is “full intrinsic activity and potency”. Also, the “Potency Relative to GRF(1-44)-NH2” value in the test with rat pituitary cells was found to be 0.5.

Turning to GRF(1-44)-NH2 [GRF(1-44)NH2], the “Potency Relative to GRF(1-44)-NH2” value in the test with rat pituitary cells is on record as 1.0. Besides, in the test on rat pituitary cells (vs natural GRF(1-44)-NH2 isolated from human pancreatic tumor (Salk Institute standard hGRF-NH2 (NL-A-10))), the “Biological activity compared with natural GRF(1-44)-NH2” value was “identical to the natural GRF(1-44)-NH2”.
